# Test results from US12679843B2, “Pyrrolopyrimidine amines as complement inhibitors” (BioCryst Pharmaceuticals, Inc., priority 2020, dated 2026).
# pIC50: −log10 of the molar value.
# Biological target: Factor D (Homo sapiens, UniProt P00746)
# Assay: Factor D esterolytic assay (Z-Lys-SBzl thioester substrate, DTNB, 405 nm)
# Format: biochemical
# Conditions: substrate Z-Lys-SBzl 1.29 mM, 100 mM HEPES, 500 mM NaCl, pH 7.5, 10% DMSO, tested a minimum of three times
# Method in brief: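 Run in pH 7.5 HEPES (100 mM) with 500 mM NaCl and 10% DMSO, with compound preincubated at room temperature or not before adding 1.29 mM Z-Lys-SBzl. Free thiol released by Factor D reacts with DTNB, and rate is followed at 405 nm minus 690 nm over 600 s. IC50 derives from rate-based inhibition, minimum three replicates.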
# Chain of Factor D (P00746 26-253): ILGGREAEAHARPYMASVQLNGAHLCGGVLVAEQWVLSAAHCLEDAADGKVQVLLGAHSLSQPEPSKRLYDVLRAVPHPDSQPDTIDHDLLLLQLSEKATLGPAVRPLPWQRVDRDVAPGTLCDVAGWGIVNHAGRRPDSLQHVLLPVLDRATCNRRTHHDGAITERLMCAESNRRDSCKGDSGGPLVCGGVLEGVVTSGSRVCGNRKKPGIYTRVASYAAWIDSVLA
row,SMILES,pIC50
1,"Nc1ncnc2c1cnn2CC(=O)N1[C@@H]2C[C@@H]2C[C@H]1C(=O)Nc1cccc(Br)n1 [Compound 79a, (1R,3S,5R)-2-(2-(4-amino-1H-pyrazolo[3,4-d]pyrimidin-1-yl)acetyl)-N-(6-bromopyridin-2-yl)-2-azabicyclo[3.1.0]hexane-3-carboxamide]",6.00 to 7.00
2,"Nc1ncnc2c1c1cc(C(F)(F)F)ccc1n2CC(=O)N1[C@@H]2C[C@@H]2C[C@H]1C(=O)Nc1ccnc(Br)c1 [Compound 259d, (1R,3S,5R)-2-(2-(4-amino-6-(trifluoromethyl)-9H-pyrimido[4,5-b]indol-9-yl)acetyl)-N-(2-bromopyridin-4-yl)-2-azabicyclo[3.1.0]hexane-3-carboxamide]",6.00 to 7.00
3,"C[C@@]12C[C@@H](C(=O)Nc3cccc(Br)n3)N(C(=O)Cn3c4ccc(-c5cccnc5)nc4c4c(N)ncnc43)[C@@H]1C2 [Compound 372a, (1R,3S,5R)-2-(2-(4-amino-6-(pyridin-3-yl)-9H-pyrido[2′,3′:4,5]pyrrolo[2,3-d]pyrimidin-9-yl)acetyl)-N-(6-bromopyridin-2-yl)-5-methyl-2-azabicyclo[3.1.0]hexane-3-carboxamide]",6.00 to 7.00
4,"COc1cccc(NC(=O)[C@@H]2C[C@H]3C[C@H]3N2C(=O)Cn2cnc3c(N)ncnc32)c1F [Compound 108b, (1R,3S,5R)-2-(2-(6-amino-9H-purin-9-yl)acetyl)-N-(2-fluoro-3-methoxyphenyl)-2-azabicyclo[3.1.0]hexane-3-carboxamide]",< 6.00
5,"Nc1nccc2c1ccn2CC(=O)N1[C@@H]2C[C@@H]2C[C@H]1C(=O)NCc1cccc(Cl)c1F [Compound 88f, (1R,3S,5R)-2-(2-(4-amino-1H-pyrrolo[3,2-c]pyridin-1-yl)acetyl)-N-(3-chloro-2-fluorobenzyl)-2-azabicyclo[3.1.0]hexane-3-carboxamide]",< 6.00
6,"Cc1ccc(Br)nc1NC(=O)[C@@H]1C[C@H]2C[C@H]2N1C(=O)Cc1ccc2c(N)ncnn12 [Compound 2d, (1R,3S,5R)-2-(2-(4-aminopyrrolo[2,1-f][1,2,4]triazin-7-yl)acetyl)-N-(6-bromo-3-methylpyridin-2-yl)-2-azabicyclo[3.1.0]hexane-3-carboxamide]",< 6.00
7,"CC(C)(C)CCNC(=O)[C@@H]1C[C@H]2C[C@H]2N1C(=O)Cn1cnc2c(N)ncnc21 [Compound 95c, (1R,3S,5R)-2-(2-(6-amino-9H-purin-9-yl)acetyl)-N-(3,3-dimethylbutyl)-2-azabicyclo[3.1.0]hexane-3-carboxamide]",< 6.00
8,"COc1cc(Cl)cc2c3c(N)ncnc3n(CC(=O)N3[C@@H]4C[C@@H]4C[C@H]3C(=O)Nc3cccc(Br)n3)c12 [Compound 238g, (1R,3S,5R)-2-(2-(4-amino-6-chloro-8-methoxy-9H-pyrimido[4,5-b]indol-9-yl)acetyl)-N-(6-bromopyridin-2-yl)-2-azabicyclo[3.1.0]hexane-3-carboxamide]",> 7.00
9,"Cc1ccc(Br)nc1NC(=O)[C@@H]1C[C@@](C)(F)CN1C(=O)Cn1c2ncnc(N)c2c2cc(C(F)(F)F)cc(C)c21 [Compound 323a, (2S,4R)-1-(2-(4-amino-8-methyl-6-(trifluoromethyl)-9H-pyrimido[4,5-b]indol-9-yl)acetyl)-N-(6-bromo-3-methylpyridin-2-yl)-4-fluoro-4-methylpyrrolidine-2-carboxamide]",> 7.00
10,"Cc1ncc(-c2cn(CC(=O)N3C[C@H](F)C[C@H]3C(=O)Nc3nc(Br)ccc3C)c3ncnc(N)c23)cn1 [Compound 118a, (2S,4R)-1-(2-(4-amino-5-(2-methylpyrimidin-5-yl)-7H-pyrrolo[2,3-d]pyrimidin-7-yl)acetyl)-N-(6-bromo-3-methylpyridin-2-yl)-4-fluoropyrrolidine-2-carboxamide]",< 6.00
11,"Cc1cc(C(=O)O)cc2c3c(N)ncnc3n(CC(=O)N3[C@H](C(=O)Nc4cccc(Br)n4)C[C@@]4(C)C[C@@H]34)c12 [Compound 219a, 4-amino-9-(2-((1R,3S,5R)-3-((6-bromopyridin-2-yl)carbamoyl)-5-methyl-2-azabicyclo[3.1.0]hexan-2-yl)-2-oxoethyl)-8-methyl-9H-pyrimido[4,5-b]indole-6-carboxylic acid]",> 7.00
12,"Nc1ncnc2c1c(C(=O)O)cn2CC(=O)N1C[C@H](F)C[C@H]1C(=O)NCc1cccc(Cl)c1F [Compound 153a, 4-amino-7-(2-((2S,4R)-2-((3-chloro-2-fluorobenzyl)carbamoyl)-4-fluoropyrrolidin-1-yl)-2-oxoethyl)-7H-pyrrolo[2,3-d]pyrimidine-5-carboxylic acid]",< 6.00

# More lines, now with the values ahead:
row,pIC50,SMILES
1,> 7.00,"Cc1cc(C2CC2)cc2c3c(N)ncnc3n(CC(=O)N3[C@@H]4C[C@@H]4C[C@H]3C(=O)Nc3cccc(Br)n3)c12 [Compound 360c, (1R,3S,5R)-2-(2-(4-amino-6-cyclopropyl-8-methyl-9H-pyrimido[4,5-b]indol-9-yl)acetyl)-N-(6-bromopyridin-2-yl)-2-azabicyclo[3.1.0]hexane-3-carboxamide]"
2,> 7.00,"C[C@@]1(F)C[C@@H](C(=O)Nc2cncc(Br)n2)N(C(=O)Cn2c3ccc(C(F)(F)F)cc3c3c(N)ncnc32)C1 [Compound 213d, (2S,4R)-1-(2-(4-amino-6-(trifluoromethyl)-9H-pyrimido[4,5-b]indol-9-yl)acetyl)-N-(6-bromopyrazin-2-yl)-4-fluoro-4-methylpyrrolidine-2-carboxamide]"
3,> 7.00,"Cc1cc(-c2ccncc2)cc2c3c(N)ncnc3n(CC(=O)N3[C@@H]4C[C@@H]4C[C@H]3C(=O)Nc3cccc(Br)n3)c12 [Compound 263c, (1R,3S,5R)-2-(2-(4-amino-8-methyl-6-(pyridin-4-yl)-9H-pyrimido[4,5-b]indol-9-yl)acetyl)-N-(6-bromopyridin-2-yl)-2-azabicyclo[3.1.0]hexane-3-carboxamide]"
4,> 7.00,"C[C@@]12C[C@@H](C(=O)Nc3cccc(Br)n3)N(C(=O)Cn3c4ccc(-c5ccc(F)cc5)cc4c4c(N)ncnc43)[C@@H]1C2 [Compound 337a, (1R,3S,5R)-2-(2-(4-amino-6-(4-fluorophenyl)-9H-pyrimido[4,5-b]indol-9-yl)acetyl)-N-(6-bromopyridin-2-yl)-5-methyl-2-azabicyclo[3.1.0]hexane-3-carboxamide]"
5,> 7.00,"Nc1ncnc2c1c1cccc(-c3ccccc3)c1n2CC(=O)N1[C@@H]2C[C@@H]2C[C@H]1C(=O)Nc1cccc(Br)n1 [Compound 244d, (1R,3S,5R)-2-(2-(4-amino-8-phenyl-9H-pyrimido[4,5-b]indol-9-yl)acetyl)-N-(6-bromopyridin-2-yl)-2-azabicyclo[3.1.0]hexane-3-carboxamide]"
6,> 7.00,"Cc1ccnc2c3c(N)ncnc3n(CC(=O)N3[C@H](C(=O)Nc4cccc(Br)n4)C[C@@]4(C)C[C@@H]34)c12 [Compound 283g, (1R,3S,5R)-2-(2-(4-amino-8-methyl-9H-pyrido[2′,3′:4,5]pyrrolo[2,3-d]pyrimidin-9-yl)acetyl)-N-(6-bromopyridin-2-yl)-5-methyl-2-azabicyclo[3.1.0]hexane-3-carboxamide]"
7,> 7.00,"C[C@@]12C[C@@H](C(=O)Nc3cccc(Br)n3)N(C(=O)Cn3c4cc(-c5ccccc5)ccc4c4c(N)ncnc43)[C@@H]1C2 [Compound 228a, (1R,3S,5R)-2-(2-(4-amino-7-phenyl-9H-pyrimido[4,5-b]indol-9-yl)acetyl)-N-(6-bromopyridin-2-yl)-5-methyl-2-azabicyclo[3.1.0]hexane-3-carboxamide]"
